# Activity calls are given as the source filed them. No cut-off for these calls is given here.
# Test system: SARS-CoV-2
# Experiment: Antiviral activity against SARS-CoV-2 pseudotyped with delta spike protein infected in HEK293T cells harbouring hACE2 assessed as decrease in virus-like particle cellular entry at 10 uM preincubated with cells for 3 hrs followed by viral infection and measured after 72 hrs by ONE-Glo-Ex luciferase assay
# Assay type: functional, organism-based
# Details: Severe acute respiratory syndrome coronavirus 2, time 75.0 hrs
row,Structure (SMILES),Activity
1,CCOC(=O)[C@H]1O[C@@H]1C(=O)N[C@@H](CC(C)C)C(=O)NCCC(C)C,Active
2,CS(=O)(=O)N[C@@H](CCC(N)=O)C(=O)N[C@@H](Cc1ccccc1)C(=O)N[C@@H](CCCNC(=N)N)C(=O)c1nc2ccccc2s1,inactive
3,CN(C)C(=O)COC(=O)Cc1ccc(OC(=O)c2ccc(NC(=N)N)cc2)cc1 [CAMOSTAT],inactive
4,N=C(N)NCCC[C@H](NC(=O)[C@H](Cc1ccccc1)NC(=O)[C@H](CCC(N)=O)NC(=O)OCc1ccccc1)C(=O)c1nccs1,inactive

# Source: ChEMBL document CHEMBL6109142 (J Med Chem, 2025)
